# Values of other authors as cited in patent publication US20070207193A1, “Novel application of topical anesthetics for modulation of neurogenic tremor” (priority 2006, published 2007).
# How the values were obtained:
# Parkinsonian tremor = details: ten patients undergoing stereotactic thalamotomy
# subthalamic nucleus = details: applied centrally in the subcortical areas of the brain
smiles,measurement,setting,value
CCN(CC)CC(=O)Nc1c(C)cccc1C [lidocaine],cases in which microinjection replicated the effects of microstimulation,Parkinsonian tremor,⅔
same,effect on tremor,subthalamic nucleus,ameliorated tremor
